Values joined by “and” are separate entries in the source; they are usually repeats but may differ in a detail not shown here. Equal values may be shown once.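 48-hour exposure; five concentrations; linearly interpolated endpoints. TGI marks complete inhibition of growth.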
Experiments:
Experiment in all cases: inhibition of tumour cell growth, NCI panel, 48 h
OVCAR-8 ovarian = test system: OVCAR-8 ovarian
U251 CNS = test system: U251 CNS
SW-620 colon = test system: SW-620 colon
HCT-15 colon = test system: HCT-15 colon
IGROV1 ovarian = test system: IGROV1 ovarian
KM12 colon = test system: KM12 colon
M14 melanoma = test system: M14 melanoma
EKVX NSCLC = test system: EKVX NSCLC
SNB-75 CNS = test system: SNB-75 CNS
MALME-3M melanoma = test system: MALME-3M melanoma

Compound	TGI (OVCAR-8 ovarian)	TGI (U251 CNS)	TGI (SW-620 colon)	TGI (HCT-15 colon)	TGI (IGROV1 ovarian)	TGI (KM12 colon)	TGI (M14 melanoma)	TGI (EKVX NSCLC)	TGI (SNB-75 CNS)	TGI (MALME-3M melanoma)
CCSc1nc(-c2cccs2)nc2ccc(I)cc12	> 100 µM	> 100 µM	> 100 µM	> 100 µM	> 100 µM	> 100 µM	> 100 µM	> 100 µM	> 100 µM	–
CC1C(=O)C(C)C(c2ccco2)N(N=O)C1c1ccco1 (centres undefined)	> 100 µM	> 100 µM	> 100 µM	> 100 µM	> 100 µM	> 100 µM	–	> 100 µM	> 100 µM	> 100 µM
C[n+]1c2ccccc2c(CNC(CS)C(=O)O)c2ccccc21 (centres undefined)	75 µM	66.7 µM	> 100 µM	55.1 µM	67.2 µM	57.5 µM	> 100 µM	> 100 µM	47.7 µM	92.1 µM
O=C(NC(Cc1ccc(I)cc1)C(=O)O)c1ccc(Cl)cc1 (centres undefined)	> 100 µM	> 100 µM	> 100 µM	> 100 µM	> 100 µM	> 100 µM	–	> 100 µM	> 100 µM	> 100 µM
COC(=O)c1ccccc1C1=C([N+](=O)[O-])C(c2cccc(Br)c2)C(C#N)=C(N)O1 (centres undefined)	45.1 µM	> 100 µM	71.4 µM	41 µM	77.6 µM	–	77.5 µM	97.7 µM	92.6 µM	–
COc1cc([N+](=O)[O-])ccc1N1C(=O)C2c3[nH]c4ccccc4c3C3CCC(C(C)(C)C)CC3C2C1=O (centres undefined)	> 100 µM	25.4 µM	> 100 µM	> 100 µM	> 100 µM	> 100 µM	40.5 µM	> 100 µM	–	> 100 µM
CCOP(=O)(OCC)C(Nc1cccc(F)c1)c1ccc(N(C)C)cc1 (centres undefined)	> 100 µM	> 100 µM	> 100 µM	> 100 µM	> 100 µM	> 100 µM	> 100 µM	> 100 µM	> 100 µM	> 100 µM
CN(C)CCCN1c2ccc([N+](=O)[O-])cc2CCc2cc([N+](=O)[O-])ccc21	29.5 µM and 30 µM	30.2 µM and 27.6 µM	34 µM and 33.2 µM	33 µM and 33.6 µM	28.9 µM and 29.1 µM	28.6 µM and 33.1 µM	31 µM and 28 µM	28.5 µM and 29.4 µM	24.8 µM and 29.3 µM	23.2 µM and 32.8 µM

— PubChem BioAssay (NCI)
